Results on 35 compounds are retold here after patent US8716292B2, “Riminophenazines with 2-(heteroaryl)amino substituents and their anti-microbial activity” (priority 2010, dated 2014).

≈ marks a conversion by molar mass, not a printed value. Read-outs that look alike come from different tables or passages of the source.

This test deals with Mycobacterium tuberculosis H37Rv strains. The test can be described thus: In vitro assay for antimicrobial susceptibility (microplate Alamar blue MIC). It counts as cell-based. To be noted: Mycobacterium tuberculosis, H37RV, read-out: MIC (μg/mL) against H37Rv. Background: The colour change of resazurin is a common sign of viable cells or microbes.
Where [1] appears, read: in vitro, Mycobacterium tuberculosis H37Rv strains.
Setting [2] is: 7H9, Alamar blue, inhibition ≧90%.

Regarding `COc1ncccc1Nc1cc2nc3ccccc3n(-c3ccc(NC(C)=O)cc3)c-2c/c1=N\C1CCC(OC)CC1` (centres unmarked) [TBI-1222, 5-(4-Acetamidophenyl)-3-(4-methoxycyclohexyl)imino-2-(2-methoxy-3-pyridyl)amino-3,5-dihydrophenazine], under setting [1], the MIC turned out to be 0.925 µg/mL (≈ 1.64 µM). Turning to `Cc1ccc(Nc2cc3nc4ccccc4n(-c4ccc(Cl)cc4)c-3c/c2=N\C2CCN(CC(C)C)CC2)cn1` [TBI-447, 5-(4-Chlorophenyl)-3-(N-isobutyl-4-piperidyl)imino-2-(6-methyl-3-pyridyl)amino-3,5-dihydrophenazine], the MIC under setting [1] was 0.028 µg/mL (≈ 0.0508 µM).

For the compound `COc1ncccc1Nc1cc2nc3ccccc3n(-c3cccc(OC(F)(F)F)c3)c-2c/c1=N\C1CCC(OC)CC1` (centres unmarked) [TBI-1039, 5-(3-Trifluoromethoxyphenyl)-3-(4-methoxycyclohexyl)imino-2-(2-methoxy-3-pyridyl)amino-3,5-dihydrophenazine], the MIC under setting [1] came to 0.059 µg/mL (≈ 0.1 µM). Same read-out and setting: as for `COc1ncccc1Nc1cc2nc3ccccc3n(-c3ccccc3)c-2c/c1=N\C(C)C` [TBI-061, 5-Phenyl-3-(1-methylethyl)imino-2-(2-methoxy-3-pyridyl)amino-3,5-dihydrophenazine], the figure is 0.06 µg/mL (≈ 0.138 µM). The same measure, in the same setting: the value for `Cc1ccc(-n2c3c/c(=N\C4CC4)c(Nc4cccnc4C)cc-3nc3ccccc32)cc1` [TBI-341, 5-(4-Methylphenyl)-3-cyclopropylimino-2-(2-methyl-3-pyridyl)amino-3,5-dihydrophenazine] was 0.014 µg/mL (≈ 0.0324 µM); that for `COc1ncccc1Nc1cc2nc3ccccc3n(-c3ccc(F)cc3)c-2c/c1=N\C1CCCCC1` [TBI-1009, 5-(4-Fluorophenyl)-3-cyclohexylimino-2-(2-methoxy-3-pyridyl)amino-3,5-dihydrophenazine] was 0.03 µg/mL (≈ 0.0608 µM). Take `CC(C)/N=c1\cc2n(-c3ccc(F)cc3)c3ccccc3nc-2cc1Nc1ncccn1` [TBI-1053, 5-(4-Fluorophenyl)-3-(1-methylethyl)imino-2-(pyrimidin-2-yl)amino-3,5-dihydrophenazine]: the MIC under setting [2] was 0.015 µg/mL (≈ 0.0353 µM). As for `Cc1cncc(Nc2cc3nc4ccccc4n(-c4ccc(C(F)(F)F)cc4)c-3c/c2=N\C2CC2)c1` [TBI-725, 5-(4-Trifluoromethylphenyl)-3-cyclopropylimino-2-(5-methyl-3-pyridyl)amino-3,5-dihydrophenazine], the MIC under setting [1] was determined as 0.031 µg/mL (≈ 0.0638 µM). On the same count and under the same terms, as for `COc1ncccc1Nc1cc2nc3ccc(F)cc3n(-c3ccc(Cl)c(Cl)c3)c-2c/c1=N\C(C)C` [TBI-899, 7-Fluoro-5-(3,4-dichlorophenyl)-3-(1-methylethyl)imino-2-(2-methoxy-3-pyridyl)amino-3,5-dihydrophenazine], the figure is 0.125 µg/mL (≈ 0.239 µM). In the case of `CC(C)/N=c1\cc2n(-c3ccc(OC(F)(F)F)cc3)c3ccccc3nc-2cc1Nc1ncccn1` [TBI-951, 5-(4-Trifluoromethoxyphenyl)-3-(1-methylethyl)imino-2-(pyrimidin-2-yl)amino-3,5-dihydrophenazine], the MIC under setting [2] is 0.019 µg/mL (≈ 0.0387 µM). For the compound `CC(C)/N=c1\cc2n(-c3ccccc3C(F)(F)F)c3ccccc3nc-2cc1Nc1cccnc1` [TBI-720, 5-(2-Trifluoromethylphenyl)-3-(1-methylethyl)imino-2-(3-pyridyl)amino-3,5-dihydrophenazine], the MIC under setting [1] was determined as 0.214 µg/mL (≈ 0.452 µM). Consider `COc1ncccc1Nc1cc2nc3cc(F)ccc3n(-c3ccc(Cl)c(Cl)c3)c-2c/c1=N\C(C)C` [TBI-874, 8-Fluoro-5-(3,4-dichlorophenyl)-3-(1-methylethyl)imino-2-(2-methoxy-3-pyridyl)amino-3,5-dihydrophenazine], for which the MIC under setting [1] worked out at 0.129 µg/mL (≈ 0.247 µM). Still for that read-out and setting: as for `Cc1ccc(Nc2cc3nc4ccccc4n(-c4ccc(Cl)cc4)c-3c/c2=N\CCN2CCOCC2)cn1` [TBI-445, 5-(4-Chlorophenyl)-3-(2-morpholinoethyl)imino-2-(6-methyl-3-pyridyl)amino-3,5-dihydrophenazine], the figure is 0.076 µg/mL (≈ 0.145 µM).

Regarding `COC1CCC(/N=c2\cc3n(-c4ccc(C)cc4)c4ccccc4nc-3cc2Nc2cccnc2)CC1` (centres unmarked) [TBI-301, 5-(4-Methylphenyl)-3-(4-methoxycyclohexyl)imino-2-(3-pyridyl)amino-3,5-dihydrophenazine], the MIC under setting [1] stood at 0.06 µg/mL (≈ 0.123 µM). With `CC(C)/N=c1\cc2n(-c3ccc(F)c(F)c3)c3ccccc3nc-2cc1Nc1ncccn1` [TBI-1437, 5-(3,4-Difluorophenyl)-3-(1-methylethyl)imino-2-(pyrimidin-2-yl)amino-3,5-dihydrophenazine], under setting [2], the MIC was found to be 0.02 µg/mL (≈ 0.0452 µM). On to `Cc1ccc(-n2c3c/c(=N\CCN4CCOCC4)c(Nc4ccc(C)nc4)cc-3nc3ccccc32)cc1` [TBI-318, 5-(4-Methylphenyl)-3-(2-morpholinoethyl)imino-2-(6-methyl-3-pyridyl)amino-3,5-dihydrophenazine], for which the MIC under setting [1] was 0.087 µg/mL (≈ 0.172 µM). For the compound `CC(=O)Nc1ccc(Nc2cc3nc4ccccc4n(-c4ccc(C(F)(F)F)cc4)c-3c/c2=N\C2CCCCC2)cn1` [TBI-713, 5-(4-Trifluoromethylphenyl)-3-cyclohexylimino-2-(6-acetamino-3-pyridyl)amino-3,5-dihydrophenazine], the MIC under setting [1] is 0.022 µg/mL (≈ 0.0386 µM). On the same count and under the same terms, as for `CSc1ccc(-n2c3c/c(=N\C(C)C)c(Nc4cccnc4)cc-3nc3ccccc32)cc1` [TBI-456, 5-(4-Methylthiophenyl)-3-(1-methylethyl)imino-2-(3-pyridyl)amino-3,5-dihydrophenazine], the figure is 0.05 µg/mL (≈ 0.111 µM). Still for that read-out and setting: the value for `CC(=O)Nc1ccc(Nc2cc3nc4ccccc4n(-c4ccc(C(F)(F)F)cc4)c-3c/c2=N\C(C)C)cn1` [TBI-711, 5-(4-Trifluoromethylphenyl)-3-(1-methylethyl)imino-2-(6-acetamino-3-pyridyl)amino-3,5-dihydrophenazine] was 0.11 µg/mL (≈ 0.207 µM). For `Clc1cccc(-n2c3c/c(=N\C4CCOCC4)c(Nc4cncnc4)cc-3nc3ccccc32)c1` [TBI-980, 5-(3-Chlorophenyl)-3-(4-tetrahydropyranyl)imino-2-(pyrimidin-5-yl)amino-3,5-dihydrophenazine], the MIC under setting [2] is 0.06 µg/mL (≈ 0.124 µM). For `COc1ncccc1Nc1cc2nc3ccccc3n(-c3ccc(OC(F)(F)F)cc3)c-2c/c1=N\CCN1CCOCC1` [TBI-169, 5-(4-Trifluoromethoxyphenyl)-3-(2-morpholinoethyl)imino-2-(2-methoxy-3-pyridyl)amino-3,5-dihydrophenazine], under setting [1], the MIC was 0.06 µg/mL (≈ 0.102 µM).

For `Fc1ccc(-n2c3c/c(=N\C4CCOCC4)c(Nc4cnccn4)cc-3nc3ccccc32)cc1` [TBI-1085, 5-(4-Fluorophenyl)-3-(4-tetrahydropyranyl)imino-2-(pyrazin-2-yl)amino-3,5-dihydrophenazine], under setting [2], the MIC stood at 0.038 µg/mL (≈ 0.0815 µM). On to `Cc1cncc(Nc2cc3nc4ccccc4n(-c4ccccc4)c-3c/c2=N\C2CCOCC2)c1` [TBI-083, 5-Phenyl-3-(4-tetrahydropyranyl)imino-2-(5-methyl-3-pyridyl)amino-3,5-dihydrophenazine], for which the MIC under setting [1] came out at 0.049 µg/mL (≈ 0.106 µM). Same read-out and setting: as for `Cc1cncc(Nc2cc3nc4ccccc4n(-c4ccc(F)cc4)c-3c/c2=N\C2CCCCC2)c1` [TBI-1029, 5-(4-Fluorophenyl)-3-cyclohexylimino-2-(5-methyl-3-pyridyl)amino-3,5-dihydrophenazine], the figure is 0.027 µg/mL (≈ 0.0565 µM). As for `COC1CCC(/N=c2\cc3n(-c4ccc(Br)cc4)c4ccccc4nc-3cc2Nc2cccnc2)CC1` (centres unmarked) [TBI-091, 5-(4-Bromophenyl)-3-(4-methoxycyclohexyl)imino-2-(3-pyridyl)amino-3,5-dihydrophenazine], under setting [1], the MIC stood at 0.062 µg/mL (≈ 0.112 µM). The same measure, in the same setting: the value for `Cc1ncccc1Nc1cc2nc3ccccc3n(-c3ccc(Br)cc3)c-2c/c1=N\C1CCCCC1` [TBI-508, 5-(4-Bromophenyl)-3-cyclohexylimino-2-(2-methyl-3-pyridyl)amino-3,5-dihydrophenazine] was 0.021 µg/mL (≈ 0.039 µM).

Regarding `Cc1ccc(Nc2cc3nc4cc(F)ccc4n(-c4ccc(OC(F)(F)F)cc4)c-3c/c2=N\C(C)C)cn1` [TBI-863, 8-Fluoro-5-(4-trifluoromethoxyphenyl)-3-(1-methylethyl)imino-2-(6-methyl-3-pyridyl)amino-3,5-dihydrophenazine], the MIC under setting [1] came to 0.061 µg/mL (≈ 0.117 µM). Take `CC(C)/N=c1\cc2n(-c3ccc(F)cc3)c3ccccc3nc-2cc1Nc1cccnc1` [TBI-679, 5-(4-Fluorophenyl)-3-(1-methylethyl)imino-2-(3-pyridyl)amino-3,5-dihydrophenazine]: the MIC under setting [1] was determined as 0.03 µg/mL (≈ 0.0708 µM). The same measure, in the same setting: as for `CC(=O)Nc1ccc(-n2c3c/c(=N\C(C)C)c(Nc4ccc(C)nc4)cc-3nc3ccccc32)cc1` [TBI-1228, 5-(4-Acetamidophenyl)-3-(1-methylethyl)imino-2-(6-methyl-3-pyridyl)amino-3,5-dihydrophenazine], the figure is 2.4 µg/mL (≈ 5.03 µM); as for `COc1ncccc1Nc1cc2nc3ccccc3n(-c3ccc(Cl)cc3)c-2c/c1=N\CCN1CCOCC1` [TBI-439, 5-(4-Chlorophenyl)-3-(2-morpholinoethyl)imino-2-(2-methoxy-3-pyridyl)amino-3,5-dihydrophenazine], 0.06 µg/mL (≈ 0.111 µM). For `COc1ncccc1Nc1cc2nc3ccccc3n(-c3ccc(C)cc3)c-2c/c1=N\C1CCCCC1` [TBI-331], the MIC under setting [1] was found to be 0.047 µg/mL (≈ 0.096 µM). On the same count and under the same terms, the value for `Clc1ccc(-n2c3c/c(=N\C4CCCCC4)c(Nc4cccnc4)cc-3nc3ccccc32)cc1Cl` [TBI-350, 5-(3,4-Dichlorophenyl)-3-cyclohexylimino-2-(3-pyridyl)amino-3,5-dihydrophenazine] was 0.031 µg/mL (≈ 0.0603 µM); that for `Cc1ccc(Nc2cc3nc4ccccc4n(-c4ccccc4)c-3c/c2=N\C2CCOCC2)cn1` [TBI-070, 5-Phenyl-3-(4-tetrahydropyranyl)imino-2-(6-methyl-3-pyridyl)amino-3,5-dihydrophenazine] was 0.08 µg/mL (≈ 0.173 µM); that for `COCC(COC)/N=c1\cc2n(-c3cccc(Cl)c3)c3ccccc3nc-2cc1Nc1ccc(C)nc1` [TBI-80C, 5-(3-Chlorophenyl)-3-(1,3-dimethoxyisopropyl)imino-2-(6-methyl-3-pyridyl)amino-3,5-dihydrophenazine] was 0.327 µg/mL (≈ 0.636 µM). Turning to `COC1CCC(/N=c2\cc3n(-c4ccc(F)c(F)c4)c4ccccc4nc-3cc2Nc2ncccn2)CC1` (centres unmarked) [TBI-1433, 5-(3,4-Difluorophenyl)-3-(4-methoxycyclohexyl)imino-2-(pyrimidin-2-yl)amino-3,5-dihydrophenazine], the MIC under setting [2] stood at 0.086 µg/mL (≈ 0.168 µM).
